Data published in US10689378B2, “Triazolopyridine compounds and uses thereof” (Novartis AG, priority 2016, dated 2020).
pIC50: −log10 of the molar value. Read-outs that look alike come from different tables or passages of the source.

What was measured:
EED (1-441)-His protein = biological target: T1, EED (1-441)-His protein (Homo sapiens, UniProt O75530); assay: EED-H3K27Me3 peptide competition binding assay by AlphaScreen
T1 construct: 30 nM EED (1-441)-His protein
Summary of the method: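 Serially diluted compound (12 points, 3-fold) incubated 20 min with 30 nM EED(1-441)-His and 15 nM biotin-H3K27Me3(19-33) peptide in 25 mM HEPES pH 8, 0.02% Tween-20, 0.5% BSA. Ni-chelate acceptor/streptavidin donor beads (10 μg/mL each) added, 1 h rt dark; 615 nm emission normalized to controls, dose-response fit for IC50.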

[1] = biological target: wild type PRC2 (wtPRC2) complex (Homo sapiens, UniProt O75530); assay: EED LC-MS assay (SAH production by PRC2); assay type: biochemical
Chain of wild type PRC2 (wtPRC2) complex (O75530 whole entry): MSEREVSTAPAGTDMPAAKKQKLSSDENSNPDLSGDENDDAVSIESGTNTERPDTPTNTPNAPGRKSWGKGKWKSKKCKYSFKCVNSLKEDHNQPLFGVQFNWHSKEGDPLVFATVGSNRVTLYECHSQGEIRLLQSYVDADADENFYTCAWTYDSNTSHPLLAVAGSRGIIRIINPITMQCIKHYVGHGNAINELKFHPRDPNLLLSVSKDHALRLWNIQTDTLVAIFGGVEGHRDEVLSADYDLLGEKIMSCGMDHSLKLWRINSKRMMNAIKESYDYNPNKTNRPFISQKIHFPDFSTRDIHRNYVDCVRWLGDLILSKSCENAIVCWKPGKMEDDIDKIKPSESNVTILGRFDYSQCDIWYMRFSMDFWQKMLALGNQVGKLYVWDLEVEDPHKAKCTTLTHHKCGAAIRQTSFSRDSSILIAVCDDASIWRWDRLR
Chain of wild type PRC2 (wtPRC2) complex (Q15910 whole entry partner): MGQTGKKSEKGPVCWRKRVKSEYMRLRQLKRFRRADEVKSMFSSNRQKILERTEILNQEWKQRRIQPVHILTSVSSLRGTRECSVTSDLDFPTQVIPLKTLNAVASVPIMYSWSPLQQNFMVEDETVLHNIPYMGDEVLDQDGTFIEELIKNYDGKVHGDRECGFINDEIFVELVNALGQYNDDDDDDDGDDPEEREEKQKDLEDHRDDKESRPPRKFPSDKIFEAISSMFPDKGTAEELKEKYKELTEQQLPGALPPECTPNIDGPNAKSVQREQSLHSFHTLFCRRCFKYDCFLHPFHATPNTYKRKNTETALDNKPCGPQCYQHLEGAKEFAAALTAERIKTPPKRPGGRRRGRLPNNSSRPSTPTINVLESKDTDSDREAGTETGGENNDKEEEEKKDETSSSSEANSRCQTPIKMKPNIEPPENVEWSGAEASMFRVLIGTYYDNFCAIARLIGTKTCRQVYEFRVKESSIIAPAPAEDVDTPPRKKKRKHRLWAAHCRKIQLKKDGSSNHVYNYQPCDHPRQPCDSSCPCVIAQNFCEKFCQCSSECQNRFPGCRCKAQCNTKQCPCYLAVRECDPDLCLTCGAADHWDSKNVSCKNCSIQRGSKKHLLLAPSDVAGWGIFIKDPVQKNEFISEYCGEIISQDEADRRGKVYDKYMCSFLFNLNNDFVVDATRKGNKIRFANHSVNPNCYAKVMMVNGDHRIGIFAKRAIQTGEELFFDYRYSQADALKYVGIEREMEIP
Chain of wild type PRC2 (wtPRC2) complex (Q15022 whole entry partner): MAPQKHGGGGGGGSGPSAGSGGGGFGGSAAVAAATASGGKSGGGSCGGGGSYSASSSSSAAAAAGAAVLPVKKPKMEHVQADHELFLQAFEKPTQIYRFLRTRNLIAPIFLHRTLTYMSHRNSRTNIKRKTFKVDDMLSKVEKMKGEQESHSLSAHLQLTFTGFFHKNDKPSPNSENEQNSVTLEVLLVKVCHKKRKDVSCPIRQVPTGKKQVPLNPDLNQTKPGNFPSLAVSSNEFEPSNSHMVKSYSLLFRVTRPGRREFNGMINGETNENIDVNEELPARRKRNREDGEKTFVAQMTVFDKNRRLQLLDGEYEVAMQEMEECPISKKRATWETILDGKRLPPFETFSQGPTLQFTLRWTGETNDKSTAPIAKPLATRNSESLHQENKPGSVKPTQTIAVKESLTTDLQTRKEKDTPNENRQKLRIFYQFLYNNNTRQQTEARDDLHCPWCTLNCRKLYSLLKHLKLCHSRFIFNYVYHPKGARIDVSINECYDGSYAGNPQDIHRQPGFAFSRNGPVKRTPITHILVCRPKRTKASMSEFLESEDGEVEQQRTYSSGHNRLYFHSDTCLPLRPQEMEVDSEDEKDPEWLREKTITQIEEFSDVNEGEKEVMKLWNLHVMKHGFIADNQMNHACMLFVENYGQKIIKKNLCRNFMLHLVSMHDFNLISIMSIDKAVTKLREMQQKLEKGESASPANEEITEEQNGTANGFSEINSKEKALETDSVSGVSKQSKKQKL
Chain of wild type PRC2 (wtPRC2) complex (Q09028 whole entry partner): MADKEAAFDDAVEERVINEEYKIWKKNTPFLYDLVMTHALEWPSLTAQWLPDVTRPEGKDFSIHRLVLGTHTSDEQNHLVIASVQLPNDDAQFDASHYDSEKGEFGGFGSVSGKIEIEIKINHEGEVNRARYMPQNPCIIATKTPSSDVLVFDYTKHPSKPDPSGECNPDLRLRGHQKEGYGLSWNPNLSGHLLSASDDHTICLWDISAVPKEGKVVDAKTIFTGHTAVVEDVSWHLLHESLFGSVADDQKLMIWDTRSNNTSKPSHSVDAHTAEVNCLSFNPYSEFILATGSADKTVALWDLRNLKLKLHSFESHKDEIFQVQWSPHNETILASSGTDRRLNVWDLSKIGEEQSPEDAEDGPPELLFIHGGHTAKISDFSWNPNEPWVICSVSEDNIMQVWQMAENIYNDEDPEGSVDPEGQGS
Chain of wild type PRC2 (wtPRC2) complex (Q6ZN18 whole entry partner): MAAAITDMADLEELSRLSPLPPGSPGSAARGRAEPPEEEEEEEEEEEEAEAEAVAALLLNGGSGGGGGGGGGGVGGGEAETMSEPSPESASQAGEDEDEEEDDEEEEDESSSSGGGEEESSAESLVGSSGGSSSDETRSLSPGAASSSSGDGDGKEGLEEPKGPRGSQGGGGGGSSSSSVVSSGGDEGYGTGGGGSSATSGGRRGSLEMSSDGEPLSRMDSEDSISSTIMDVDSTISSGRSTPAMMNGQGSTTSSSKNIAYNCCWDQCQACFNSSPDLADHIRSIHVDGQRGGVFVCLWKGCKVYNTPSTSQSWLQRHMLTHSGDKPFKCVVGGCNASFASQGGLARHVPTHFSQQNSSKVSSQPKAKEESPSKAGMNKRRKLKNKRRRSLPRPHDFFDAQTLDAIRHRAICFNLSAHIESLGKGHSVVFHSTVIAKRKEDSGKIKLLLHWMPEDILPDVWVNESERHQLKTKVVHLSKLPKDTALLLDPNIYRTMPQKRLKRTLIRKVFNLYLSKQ
Summary of the method: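 LC-MS/MS readout of SAH (d4-SAH standard) after TFA quench gives PRC2 activity, normalized to controls and fitted to dose-response for IC50. Reaction: 12 nM EZH2/SUZ12/EED/Rbap48/AEBP complex, 1 μM SAM, 1.5 μM H3[21-44] peptide, 120 min rt, 20 min compound preincubation.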

[2] = system: H3K27 methylation in G401 cell; assay: ELISA (H3K27 methylation) assay in G401 cells; assay type: cell-based, human; conditions: Homo sapiens
Summary of the method: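 IC50 from dose-response fit of percent inhibition relative to DMSO, using H3K27me3/me2 ELISA signal (ECL) normalized to histone H3. Histones HCl-extracted after 48 h compound exposure of G401 cells at up to 20 μM, 8- or 12-point 3-fold series.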

[3] = EED-H3K27Me3 peptide competition, AlphaScreen, read-out: (a) IC50 EED Alphascreen binding Qualified
[4] = PRC2 LC-MS assay, read-out: (b) IC50 EED LC-MS Qualified
[5] = G-401, H3K27 methylation ELISA, read-out: (c) IC50 ELISA Qualified
[6] = read-out: (a) IC50, EED Alphascreen binding Qualified
[7] = read-out: (b) IC50, EED LC-MS Qualified
[8] = G-401, read-out: (c) IC50, ELISA Qualified

T1 sequence (O75530 whole entry): as the sequence (O75530 whole entry) above

pIC50 (EED (1-441)-His protein; [3]) | pIC50 [1, 4] | pIC50 [2, 5] | Compound | also measured
7.79 | 7.25 | 7.90 | COc1cc(F)cc(F)c1CNc1ccc(-c2ccc(S(C)(=O)=O)nc2C)c2nncn12 [Example 241, N-(2,4-difluoro-6-methoxybenzyl)-8-(2-methyl-6-(methylsulfonyl)pyridin-3-yl)-[1,2,4]triazolo[4,3-a] pyridin-5-amine] | –
7.61 | 7.40 | 7.70 | COc1cc(F)cc(F)c1CNc1ccc(-c2cccnc2C)c2nncn12 [Example 239, N-(2,4-difluoro-6-methoxybenzyl)-8-(2-methylpyridin-3-yl)-[1,2,4]triazolo[4,3-a]pyridin-5-amine] | –
7.84 | 7.60 | 7.81 | COc1cccc(F)c1CNc1ccc(-c2c(C)nn(CC(C)O)c2C)c2nncn12 (stereo not drawn) [Example 274, 1-(4-(5-((2-fluoro-6-methoxybenzyl)amino)-[1,2,4]triazolo[4,3-a]pyridin-8-yl)-3,5-dimethyl-1H-pyrazol-1-yl)propan-2-ol] | –
– | – | – | COc1cccc(F)c1CNc1ccc(-c2ccc(NC(=O)N(C)C)nc2C)c2nncn12 [Example 368, 3-(5-(5-((2-fluoro-6-methoxybenzyl)amino)-[1,2,4]triazolo[4,3-a]pyridin-8-yl)-6-methylpyridin-2-yl)-1,1-dimethylurea] | pIC50 (EED (1-441)-His protein; read-out: (a) IC50 EED Alphascreen binding Qualified): 7.93; pIC50 ([1]; read-out: (b) IC50 EED LC-MS Qualified): 7.15; pIC50 ([2]; G-401, read-out: (c) IC50 ELISA Qualified): 8.19
7.16 | 6.97 | 6.86 | COc1cc(F)cc(F)c1CNc1ccc(-c2ccc(S(C)(=O)=O)cc2)c2nncn12 [Example 235, N-(2,4-difluoro-6-methoxybenzyl)-8-(4-(methylsulfonyl)phenyl)-[1,2,4]triazolo[4,3-a]pyridin-5-amine] | –
– | – | – | COc1ccccc1CNc1ccc(-c2cnc(OC)c(F)c2)c2nncn12 [Example 50, 8-(5-fluoro-6-methoxypyridin-3-yl)-N-(2-methoxybenzyl)-[1,2,4]triazolo[4,3-a] pyridin-5-amine] | pIC50 (EED (1-441)-His protein; [6]): 7.04; pIC50 [1, 7]: 5.50; pIC50 [2, 8]: 6.43
8.10 | 7.73 | 8.44 | COc1cccc(F)c1CNc1ccc(-c2ccc(S(C)(=O)=O)nc2C)c2nncn12 [Example 185, N-(2-fluoro-6-methoxybenzyl)-8-(2-methyl-6-(methylsulfonyl)pyridin-3-yl)-[1,2,4]triazolo[4,3-a] pyridin-5-amine] | –
8.00 | 6.92 | 8.00 | COc1cccc(F)c1CNc1ccc(-c2ccc(F)nc2C)c2nncn12 [Example 222, 8-(6-fluoro-2-methylpyridin-3-yl)-N-(2-fluoro-6-methoxybenzyl)-[1,2,4]triazolo[4,3-a] pyridin-5-amine] | –
7.75 | 7.20 | 7.80 | COc1cc(F)cc(F)c1CNc1ccc(-c2ccc(C#N)nc2C)c2nncn12 [Example 324, 5-(5-((2,4-difluoro-6-methoxybenzyl)amino)-[1,2,4]triazolo[4,3-a]pyridin-8-yl)-6-methylpicolinonitrile] | –
– | – | – | COc1ccccc1CNc1ccc(-c2ccc(S(=O)(=O)C(C)C)nc2)c2nncn12 [Example 127, 8-(6-(isopropylsulfonyl)pyridin-3-yl)-N-(2-methoxybenzyl)-[1,2,4]triazolo[4,3-a] pyridin-5-amine] | pIC50 (EED (1-441)-His protein; [6]): 7.66; pIC50 [1, 7]: 6.24; pIC50 [2, 8]: 7.85
7.27 | 6.80 | 7.36 | COc1cccc(F)c1CNc1ccc(-c2ccc(C(C)O)nc2)c2nncn12 (stereo not drawn) [Example 205, 1-(5-(5-((2-fluoro-6-methoxybenzyl)amino)-[1,2,4]triazolo[4,3-a]pyridin-8-yl)pyridin-2-yl)ethanol] | –
– | – | – | COc1ccccc1CNc1ccc(-c2ccc(C(=O)N(C)C)cc2F)c2nncn12 [Example 71, 3-fluoro-4-(5-((2-methoxybenzyl)amino)-[1,2,4]triazolo[4,3-a]pyridin-8-yl)-N,N-dimethylbenzamide] | pIC50 (EED (1-441)-His protein; [6]): 7.46; pIC50 [1, 7]: 6.56; pIC50 [2, 8]: 7.36
– | – | – | COc1ccccc1CNc1ccc(-c2cnc(N3CCN(C)CC3)c(C)c2)c2nncn12 [Example 20, N-(2-methoxybenzyl)-8-(5-methyl-6-(4-methylpiperazin-1-yl)pyridin-3-yl)-[1,2,4]triazolo[4,3-a]pyridin-5-amine] | pIC50 (EED (1-441)-His protein; [6]): 7.10; pIC50 [1, 7]: 6.61; pIC50 [2, 8]: 6.73
7.84 | 7.69 | 8.19 | COc1cccc(F)c1CNc1ccc(-c2ccc(C#N)nc2C)c2nncn12 [Example 250, 5-(5-((2-fluoro-6-methoxybenzyl)amino)-[1,2,4]triazolo[4,3-a]pyridin-8-yl)-6-methylpicolinonitrile] | –
– | – | – | COc1cccc(F)c1CNc1ccc(-c2ccc(S(C)(=O)=O)nc2)c2nncn12 [Example 112, N-(2-fluoro-6-methoxybenzyl)-8-(6-(methylsulfonyl)pyridin-3-yl)-[1,2,4]triazolo[4,3-a] pyridin-5-amine] | pIC50 (EED (1-441)-His protein; [6]): 8.01; pIC50 [1, 7]: 6.59; pIC50 [2, 8]: 8.31
7.63 | 6.64 | 7.18 | COc1cccc(F)c1CNc1ccc(-c2cc(F)ccc2C)c2nncn12 [Example 223, 8-(5-fluoro-2-methylphenyl)-N-(2-fluoro-6-methoxybenzyl)-[1,2,4]triazolo[4,3-a] pyridin-5-amine] | –
7.51 | 6.49 | 7.91 | COc1cc(F)cc(F)c1CNc1ccc(-c2ccc(C(=O)N(C)C)cc2C)c2nncn12 [Example 295, 4-(5-((2,4-difluoro-6-methoxybenzyl)amino)-[1,2,4]triazolo[4,3-a]pyridin-8-yl)-N,N,3-trimethyl benzamide] | –
7.46 | 6.02 | 7.60 | CNC(=O)Cc1cncc(-c2ccc(NCc3c(F)cccc3OC)n3cnnc23)c1 [Example 217, 2-(5-(5-((2-fluoro-6-methoxybenzyl)amino)-[1,2,4]triazolo[4,3-a]pyridin-8-yl)pyridin-3-yl)-N-methyl acetamide] | –
7.25 | 6.79 | 6.95 | COc1cccc(F)c1CNc1ccc(-c2ccc(N3CCOCC3)nc2)c2nncn12 [Example 172, N-(2-fluoro-6-methoxybenzyl)-8-(6-morpholinopyridin-3-yl)-[1,2,4]triazolo [4,3-a]pyridin-5-amine] | –
7.44 | 6.91 | 7.39 | COc1ccc(-c2ccc(NCc3c(F)cccc3OC)n3cnnc23)cn1 [Example 173, N-(2-fluoro-6-methoxybenzyl)-8-(6-methoxypyridin-3-yl)-[1,2,4]triazolo [4,3-a]pyridin-5-amine] | –
7.18 | 6.54 | 7.23 | COc1cc(F)cc(F)c1CNc1ccc(-c2cnccc2C)c2nncn12 [Example 253, N-(2,4-difluoro-6-methoxybenzyl)-8-(4-methylpyridin-3-yl)-[1,2,4]triazolo[4,3-a] pyridin-5-amine] | –
– | – | – | COc1ccccc1CNc1ccc(-c2ccc(C[N+](C)(C)[O-])cc2)c2nncn12 [Example 40, 1-(4-(5-((2-methoxybenzyl)amino)-[1,2,4]triazolo[4,3-a]pyridin-8-yl)phenyl)-N,N-dimethylmethanamine oxide] | pIC50 (EED (1-441)-His protein; [6]): 7.11; pIC50 [1, 7]: 6.34; pIC50 [2, 8]: 6.86
7.42 | 6.84 | 7.50 | COc1c(F)ccc(F)c1CNc1ccc(-c2ccc(S(C)(=O)=O)nc2C)c2nncn12 [Example 334, N-(3,6-difluoro-2-methoxybenzyl)-8-(2-methyl-6-(methylsulfonyl)pyridin-3-yl)-[1,2,4]triazolo[4,3-a] pyridin-5-amine] | –
7.45 | 7.34 | 7.66 | COc1cccc(F)c1CNc1ccc(-c2cnc(N(C)C)nc2C)c2nncn12 [Example 260, 8-(2-(dimethylamino)-4-methylpyrimidin-5-yl)-N-(2-fluoro-6-methoxybenzyl)-[1,2,4]triazolo[4,3-a]pyridin-5-amine] | –
7.51 | 7.38 | 7.81 | COc1cccc(F)c1CNc1ccc(-c2cc(C(F)F)ncc2C)c2nncn12 [Example 306, 8-(2-(difluoromethyl)-5-methylpyridin-4-yl)-N-(2-fluoro-6-methoxybenzyl)-[1,2,4]triazolo[4,3-a]pyridin-5-amine] | –
– | – | – | COc1ccccc1CNc1ccc(-c2ccc([S+](C)[O-])cc2)c2nncn12 (stereo not drawn) [Example 102, N-(2-methoxybenzyl)-8-(4-(methylsulfinyl)phenyl)-[1,2,4]triazolo[4,3-a]pyridin-5-amine] | pIC50 (EED (1-441)-His protein; [6]): 7.21; pIC50 [1, 7]: 5.84; pIC50 [2, 8]: 7.16
– | – | – | COc1cccc(F)c1CNc1ccc(-c2ccncc2)c2nncn12 [Example 113, N-(2-fluoro-6-methoxybenzyl)-8-(pyridin-4-yl)-[1,2,4]triazolo[4,3-a]pyridin-5-amine] | pIC50 (EED (1-441)-His protein; [6]): 7.41; pIC50 [1, 7]: 6.93; pIC50 [2, 8]: 7.56
